From US20100239556A1, “PROMOTING ECM PRODUCTION BY FIBROBLAST CELLS AND/OR PROMOTING MIGRATION OF FIBROBLAST CELLS IN A BIOLOGICAL SYSTEM” (TGR BioScience Pty Ltd., priority 2006, published 2010)

System: HFF cells
Experiment: Fibroblast infiltration into INTEGRA scaffold (SMA immunohistochemistry)
Assay type: cell-based, human
Conditions: 6 days
From the text: INTEGRA® was cut into lcm x lcm pieces using a sterile scalpel, the pieces transferred to a petri dish using sterile forceps and washed four times each with PBS followed by serum-free DMEM, to remove the alcohol storage medium and to equilibrate the porous scaffold for exposure to cells. After the last wash, the INTEGRA® pieces were transferred to the wells of a 12 well tissue culture plate (collagen layer facing up) immersed in media containing proteins having peroxidase activity. This “pre-treatment” of the INTEGRA® with proteins having peroxidase activity was performed for up to 16 hours at 37° C. in a CO2 incubator. […]
Additional experiments were performed as described above using HFF cells and varying the period of application of the proteins having peroxidase activity to include a “pre-treatment” application only (ie INTEGRA® incubated with SBP 25 μg/ml for up to 16 hours prior to the addition of cells), a “pre-treatment” and “post-treatment” application (ie INTEGRA® pre-treated with SBP and SBP added to the culture media once the INTEGRA had been seeded with cells) and a “post-treatment” application only (ie SBP added to the culture media once the INTEGRA® had been seeded with cells). The INTEGRA® was harvested after 6 days in culture and the number of SMA-positive fibroblast cells counted in five representative fields of view of sections from each condition.

## soy bean peroxidase [SBP]
SBP 25 μg/ml pre-, pre+post- or post-treatment, versus 10% FBS control
  number of fibroblast cells infiltrating and populating the INTEGRA: major influence on the number of fibroblast cells infiltrating and populating
SBP 25 μg/ml, controls limited to about the top third
  penetration of HFF cells into the scaffold: penetrated the full thickness of the scaffold
